± gives the expanded uncertainty stated by the source.
What was measured:
[1] = molar heat capacity at constant pressure; wn = mass fraction of the nth substance listed; conditions: 100 kPa, Liquid, Large sample (1 g) DSC
[2] = molar heat capacity at constant pressure; conditions: 100 kPa, Liquid, Large sample (1 g) DSC

[Cl-].[Li+] [lithium chloride] + O
molar heat capacity at constant pressure [J/K/mol], [1]
Conditions	308.15 K	313.15 K	318.15 K	323.15 K	328.15 K	333.15 K	338.15 K	343.15 K
w1 = 0.15	68.89 ± 2.9	68.97 ± 2.9	69.06 ± 2.9	69.18 ± 2.9	69.28 ± 2.9	69.36 ± 2.9	69.36 ± 2.9	69.42 ± 2.9
w1 = 0.2001	67.4 ± 2.9	67.55 ± 2.9	67.65 ± 2.9	67.79 ± 2.9	67.93 ± 2.9	68.02 ± 2.9	68.08 ± 2.9	68.06 ± 2.9
w1 = 0.2501	66.11 ± 2.8	66.26 ± 2.8	66.43 ± 2.8	66.6 ± 2.8	66.76 ± 2.8	66.93 ± 2.8	67.02 ± 2.8	67.12 ± 2.8
w1 = 0.3	65.14 ± 2.8	65.44 ± 2.8	65.66 ± 2.8	65.9 ± 2.8	66.14 ± 2.8	66.34 ± 2.8	66.49 ± 2.8	66.58 ± 2.8
w1 = 0.3499	64.84 ± 2.8	65.16 ± 2.8	65.4 ± 2.8	65.65 ± 2.8	65.92 ± 2.8	66.15 ± 2.8	66.33 ± 2.8	66.49 ± 2.8
w1 = 0.3998	64.57 ± 2.7	64.89 ± 2.8	65.17 ± 2.8	65.48 ± 2.8	65.78 ± 2.8	66.04 ± 2.8	66.25 ± 2.8	66.39 ± 2.8
w1 = 0.4502	64.39 ± 2.7	64.76 ± 2.7	65.05 ± 2.8	65.37 ± 2.8	65.68 ± 2.8	65.95 ± 2.8	66.17 ± 2.8	66.34 ± 2.8

O [water]
[2]
Conditions	molar heat capacity at constant pressure [J/K/mol]
308.15 K	75.47 ± 3.2
313.15 K	75.43 ± 3.2
318.15 K	75.41 ± 3.2
323.15 K	75.43 ± 3.2
328.15 K	75.45 ± 3.2
333.15 K	75.47 ± 3.2
338.15 K	75.47 ± 3.2
343.15 K	75.47 ± 3.2
